Source: article PMC6982817, “Substituted N-(Pyrazin-2-yl)benzenesulfonamides; Synthesis, Anti-Infective Evaluation, Cytotoxicity, and In Silico Studies” (Molecules, 2019)
In brackets after ≈: the same amount, converted by molar mass. Like-named read-outs stand apart in the source and are kept apart here.

Assays:
[1] = test system: Mycobacterium tuberculosis H37Rv CNCTC My 331/88 (ATCC 27294); details: cited from earlier work; for Antimycobacterial Activity MIC against Mtb H37Rv, Amide: previously published pyrazinecarboxamides, methodology not identical; for Antimycobacterial Activity MIC against Mtb H37Rv, Retro-amide: previously published N-pyrazinylbenzamides
[2] = test system: Escherichia coli CCM 3954 (ATCC 25922); experiment: Antibacterial microdilution broth, E. coli; assay type: cell-based; details: 48 h, read-out: MIC against Escherichia coli
[3] = test system: Staphylococcus aureus CCM 4223 (ATCC 29213); experiment: Antibacterial microdilution broth, S. aureus; assay type: cell-based; details: 48 h, read-out: MIC against Staphylococcus aureus
[4] = test system: Klebsiella pneumoniae 64-2016; experiment: Antibacterial microdilution broth, K. pneumoniae; assay type: cell-based; details: Klebsiella pneumoniae, 642016, 48 h; read-out: MIC against Klebsiella pneumonia
[5] = test system: Mycobacterium smegmatis DSM 43465 (ATCC 607); experiment: Antimycobacterial microdilution assay, M. smegmatis; assay type: cell-based; details: for MIC: Mycolicibacterium smegmatis
[6] = test system: Enterococcus faecalis CCM 4224 (ATCC 29212); experiment: Antibacterial microdilution broth, E. faecalis; assay type: cell-based; details: 48 h, read-out: MIC against Enterococcus faecalis
[7] = test system: Serratia marcescens 62-2016; experiment: Antibacterial microdilution broth, S. marcescens; assay type: cell-based; details: Serratia marcescens, 622016, 48 h; read-out: MIC against Serratia marcescens
[8] = test system: Staphylococcus aureus methicillin-resistant CCM 4750 (ATCC 43300); experiment: Antibacterial microdilution broth, MRSA; assay type: cell-based; details: 48 h, read-out: MIC against Staphylococcus aureus methicillin resistant
[9] = test system: Staphylococcus epidermidis 112-2016; experiment: Antibacterial microdilution broth, S. epidermidis; assay type: cell-based; details: Staphylococcus epidermidis, 1122016, 48 h; read-out: MIC against Staphylococcus epidermidis
[10] = test system: Pseudomonas aeruginosa CCM 3955 (ATCC 27853); experiment: Antibacterial microdilution broth, P. aeruginosa; assay type: cell-based; details: 48 h, read-out: MIC against Pseudomonas aeruginosa
[11] = test system: Mycobacterium aurum DSM 43999 (ATCC 23366); experiment: Antimycobacterial microdilution assay, M. aurum; assay type: cell-based; details: Middlebrook 7H9 broth, resazurin after 72 hours; for MIC: Mycolicibacterium aurum, 72 h
[12] = test system: Mycobacterium tuberculosis H37Rv CNCTC My 331/88 (ATCC 27294); experiment: Antimycobacterial microplate alamar blue assay, M. tuberculosis H37Rv; assay type: cell-based; details: for MIC: Mycobacterium tuberculosis
[13] = test system: M. avium ssp. avium CNCTC My 80/72 (ATCC 15769); experiment: Antimycobacterial microplate alamar blue assay, M. avium; assay type: cell-based, Mycobacterium avium; details: for MIC: Mycobacterium avium
[14] = physchem
Procedure: (§1) Three compounds 6b, 9b and 13b were selected and their pKa values were determined experimentally using potentiometric and absorbance methods (Table 2).
(§2) For the spectrophotometric method, 1 μM solution of the compound in question was prepared in methanol. The spectra of the sample at several (at least seven) different pH values were measured against blank (water) using a Helios spectrophotometer (Unicam Cambridge). The pH valued covered the region in which all sample molecules were converted from ionized to molecular form or vice versa. Each cuvette contained 200 μL of the sample solution and 1.8 mL of the corresponding buffer. The pH values used and the absorbances allowed us to calculate the pKa of the sample according to the following equation: pKa=pH+log(Ai−A/A−Au) where A is the absorbance of the compound at the corresponding buffer, Ai is the absorbance of the ionized state of the compound and Au is the absorbance of the unionized state. The final pKa was the average of all the pKa at different pH values. For the potentiometric measurements, 1 μM solution of the compound in question was prepared in 3:2 water:methanol, with the addition of 100 μL of 0.1% NaOH. Then small amounts (100 μL) of 0.01% HCl were added repeatedly and the pH was measured each time using a pH meter (inoLab® pH 7110 Czech Republic). The inflection point of the titration curve determined the pKa.

[15] = test system: M. kansasii CNCTC My 235/80 (ATCC 12478); experiment: Antimycobacterial microplate alamar blue assay, M. kansasii; assay type: cell-based, Mycobacterium kansasii; details: Mycobacterium kansasii
[16] = physchem; remark: listed apart in the source
Procedure: as §1, §2

[17] = in vitro; details: human
[18] = test system: HepG2 cells; details: cited from earlier work
[19] = test system: four Gram-positive and four Gram-negative bacterial strains; experiment: Antibacterial screening, microdilution broth, panel of eight strains; assay type: cell-based; details: concentration scale 500–0.97 μM
[20] = test system: C. krusei CCM 8271 (ATCC 6258); experiment: Antifungal microdilution broth, C. krusei; assay type: cell-based, Candida krusei; details: Pichia kudriavzevii, 48 h; read-out: MIC against C. krusei
[21] = test system: Trichophyton interdigitale CCM 8377 (ATCC 9533); experiment: Antifungal microdilution broth, T. interdigitale; assay type: cell-based; details: 72 h, read-out: MIC against Trichophyton interdigitale
[22] = test system: Aspergillus flavus CCM 8363; experiment: Antifungal microdilution broth, A. flavus; assay type: cell-based; details: CCM8363, 48 h, read-out: MIC against Aspergillus flavus
[23] = test system: C. tropicalis CCM 8264 (ATCC 750); experiment: Antifungal microdilution broth, C. tropicalis; assay type: cell-based; details: Candida tropicalis, 48 h; read-out: MIC against C. tropicalis
[24] = test system: C. parapsilosis CCM 8260 (ATCC 22019); experiment: Antifungal microdilution broth, C. parapsilosis; assay type: cell-based, Candida parapsilosis; details: Lodderomyces parapsilosis, 48 h; read-out: MIC against C. parapsilosis
[25] = test system: Lichtheimia corymbifera CCM 8077; experiment: Antifungal microdilution broth, L. corymbifera; assay type: cell-based; details: CCM8077, 48 h, read-out: MIC against Lichtheimia corymbifera
[26] = test system: Aspergillus fumigatus ATCC 204305; experiment: Antifungal microdilution broth, A. fumigatus; assay type: cell-based; details: ATCC204305, 48 h, read-out: MIC against Aspergillus fumigatus
[27] = test system: Candida albicans CCM 8320 (ATCC 24433); experiment: Antifungal microdilution broth, C. albicans; assay type: cell-based; details: 48 h, read-out: MIC against Candida albicans
[28] = 48 h, Middlebrook 7H9 broth, resazurin after 48 hours, read-out: Antimycobacterial Activity MIC M. smeg
[29] = pH 6.6, Middlebrook 7H9 broth pH 6.6, alamar blue, read-out: Antimycobacterial Activity MIC Mtb H37Rv
[30] = ATCC15769, pH 6.6, Middlebrook 7H9 broth pH 6.6, alamar blue, read-out: Antimycobacterial Activity MIC M. avium
[31] = ATCC12478, pH 6.6, Middlebrook 7H9 broth pH 6.6, alamar blue, read-out: Antimycobacterial Activity MIC M. kansasii
[32] = ATCC12478, molar value printed beside μg/mL in text, read-out: MIC M. kansasii
[33] = Middlebrook 7H9 broth pH 6.6, alamar blue

Compound	MIC [5, 28] [µg/mL]	MIC [11] [µg/mL]	MIC [12, 29] [µg/mL]	MIC [13, 30] [µg/mL]	MIC [15, 31] [µg/mL]	IC50 at 24 h [17] [µM]	melting point [°C]	other results
O=C(Nc1ccccc1)c1cncc(Cl)n1 [Amide R^1 6-Cl R^2 H]								Antimycobacterial Activity MIC against Mtb H37Rv, Amide [1]: >100 µg/mL
COc1ccc(NC(=O)c2cnccn2)cc1 [Amide R^1 H R^2 4-OCH3]								Antimycobacterial Activity MIC against Mtb H37Rv, Amide [1]: 25 µg/mL
O=C(Nc1ccccc1)c1cnccn1 [Amide R^1 H R^2 H]								Antimycobacterial Activity MIC against Mtb H37Rv, Amide [1]: 100 µg/mL
O=C(O)c1cn(C2CC2)c2cc(N3CCNCC3)c(F)cc2c1=O [CPX]	0.0625 to 0.125	0.00781 to 0.0156 (≈ 0.0236 to 0.0472 µM)						MIC [2]: 0.008 µg/mL (≈ 0.0241 µM); MIC [3]: 0.128 to 0.256 µg/mL (≈ 0.386 to 0.773 µM); MIC [4]: > 1.02 µg/mL; Antimycobacterial Activity MIC M. smeg ([5]; Middlebrook 7H9 broth, resazurin after 48 hours): 0.125 µg/mL; MIC [6]: 0.512 µg/mL (≈ 1.55 µM); MIC [7]: 0.256 µg/mL (≈ 0.773 µM); MIC [8]: 0.128 µg/mL (≈ 0.386 µM); MIC [9]: > 1.02 µg/mL; MIC [10]: 0.128 µg/mL (≈ 0.386 µM); Antimycobacterial Activity MIC M. aurum [11]: 0.008 µg/mL
COc1ccc(S(=O)(=O)Nc2cncc(Cl)n2)cc1 [Compound 6b, N-(6-chloropyrazin-2-yl)-4-methoxybenzenesulfonamide]	≥ 500	≥ 500	> 100	> 100	100	> 1000		pKa [14]: 7.21; pKa [16]: 6.95
Cc1cc(C)c(S(=O)(=O)Nc2cncc(Cl)n2)c(C)c1 [Compound 9b, N-(6-chloropyrazin-2-yl)-2,4,6-trimethylbenzenesulfonamide]	≥ 500	≥ 500	> 100	> 100	50	180	179.7 to 180.2	pKa [14]: 6.38; pKa [16]: 6.32
O=S(=O)(Nc1cncc(Cl)n1)c1ccc2c(c1)OCCO2 [Compound 11b, N-(6-chloropyrazin-2-yl)-2,3-dihydrobenzo[b][1,4]dioxine-6-sulfonamide]	≥ 500	≥ 500	> 100	> 100	25	778	244.6 to 247	MIC [15, 32]: 76.3 µM
O=S(=O)(Nc1cncc(Cl)n1)c1ccc(-c2ccccc2)cc1 [Compound 12b, N-(6-chloropyrazin-2-yl)-[1,1′-biphenyl]-4-sulfonamide]	≥ 500	≥ 500	100	> 100	12.5	302	229.3 to 230.3	MIC [15, 32]: 36.1 µM
O=S(=O)(Nc1cnccn1)c1ccc2ccccc2c1 [Compound 13a, N-(pyrazin-2-yl)naphthalene-2-sulfonamide]	62.5	≥ 500	> 100	> 100	50	> 500	223.5 to 224.7	MIC ([5]; read-out: MIC M. smegmatis): 219 µM
O=S(=O)(Nc1cncc(Cl)n1)c1ccc2ccccc2c1 [Compound 13b, N-(6-chloropyrazin-2-yl)naphthalene-2-sulfonamide]	125	250 (≈ 782 µM)	50	> 100	50	> 1000	204.6 to 207	pKa [14]: 5.75; pKa [16]: 5.63
O=S(=O)(Nc1cnccn1)c1ccc2ncccc2c1 [Compound 14a, N-(pyrazin-2-yl)quinoline-6-sulfonamide]	≥ 500	≥ 500	> 100	> 100	100	> 250	249.4 to 252	
NNC(=O)c1ccncc1 [INH, reference compound]			0.1 to 0.2	6.25 to 12.5				Antimycobacterial Activity MIC Mtb H37Rv [12, 33]: 0.2 µg/mL; Antimycobacterial Activity MIC M. avium [13, 33]: 12.5 µg/mL; MIC [15, 32]: 182 µM; IC50 [18]: 79000 µM
NC(=O)c1cnccn1 [PZA, reference compound]	≥ 500	≥ 500	> 100	> 100	> 100			IC50 [18]: > 10000 µM
O=C(Nc1cncc(Cl)n1)c1ccccc1 [Retro-amide R^1 6-Cl R^2 H]								Antimycobacterial Activity MIC against Mtb H37Rv, Retro-amide [1]: 25 µg/mL
COc1ccc(C(=O)Nc2cnccn2)cc1 [Retro-amide R^1 H R^2 4-OCH3]								Antimycobacterial Activity MIC against Mtb H37Rv, Retro-amide [1]: >100 µg/mL
O=C(Nc1cnccn1)c1ccccc1 [Retro-amide R^1 H R^2 H]								Antimycobacterial Activity MIC against Mtb H37Rv, Retro-amide [1]: >100 µg/mL
Cc1cc(NS(=O)(=O)c2ccc(N)cc2)no1 [Sulfamethoxazole, 4-amino-N-(5-methylisoxazol-3-yl)benzenesulfonamide, reference compound]	250	≥ 500	3.13	12.5	3.13			MIC ([12]; read-out: MIC Mtb H37Rv): 12 µM; MIC ([13]; ATCC15769, molar value printed beside μg/mL in text, read-out: MIC M. avium): 49 µM; MIC [15, 32]: 12 µM; antibacterial activity MIC [19]: not active against any of the tested bacterial strains
C[C@@H]1[C@H](O)[C@@H](C)/C=C/C=C/C=C/C=C/C=C/C=C/C=C/[C@H](O[C@@H]2O[C@H](C)[C@@H](O)[C@H](N)[C@@H]2O)C[C@@H]2O[C@](O)(C[C@@H](O)C[C@@H](O)[C@H](O)CC[C@@H](O)C[C@@H](O)CC(=O)O[C@H]1C)C[C@H](O)[C@H]2C(=O)O [amphotericin B]								MIC [20]: 1 µg/mL (≈ 1.08 µM); MIC [21]: 2 µg/mL (≈ 2.16 µM); MIC [22]: 8 µg/mL (≈ 8.66 µM); MIC [23]: 1 µg/mL (≈ 1.08 µM); MIC [24]: 0.5 µg/mL (≈ 0.541 µM); MIC [25]: 0.5 µg/mL (≈ 0.541 µM)
CNC(C)C1CCC(N)C(OC2C(N)CC(N)C(OC3OCC(C)(O)C(NC)C3O)C2O)O1 (stereo not shown) [gentamicin]								MIC [2]: 1 to 2 µg/mL (≈ 2.09 to 4.19 µM); MIC [3]: 1 µg/mL (≈ 2.09 µM); MIC [4]: > 8 µg/mL; MIC [6]: 8 µg/mL (≈ 16.8 µM); MIC [7]: 2 µg/mL (≈ 4.19 µM); MIC [8]: 16 to 32 µg/mL (≈ 33.5 to 67 µM); MIC [9]: > 8 µg/mL; MIC [10]: 0.5 µg/mL (≈ 1.05 µM)
C[C@@H](c1ncncc1F)[C@](O)(Cn1cncn1)c1ccc(F)cc1F [voriconazole]								MIC [20]: 0.5 µg/mL (≈ 1.43 µM); MIC [21]: > 16 µg/mL; MIC [26]: 1 µg/mL (≈ 2.86 µM); MIC [22]: > 16 µg/mL; MIC [23]: > 16 µg/mL; MIC [24]: 8 µg/mL (≈ 22.9 µM); MIC [27]: > 16 µg/mL; MIC [25]: > 16 µg/mL
